Reference: ChEMBL document CHEMBL5727878, “Triazole furan compounds as agonists of the APJ receptor” (2020)
Several values for one entry are separate records, joined by “and”; a condition that tells them apart may be missing. Identical values can stand only once.

Target: T1, Apelin receptor (Homo sapiens, UniProt P35414)
T1 sequence (P35414 whole entry): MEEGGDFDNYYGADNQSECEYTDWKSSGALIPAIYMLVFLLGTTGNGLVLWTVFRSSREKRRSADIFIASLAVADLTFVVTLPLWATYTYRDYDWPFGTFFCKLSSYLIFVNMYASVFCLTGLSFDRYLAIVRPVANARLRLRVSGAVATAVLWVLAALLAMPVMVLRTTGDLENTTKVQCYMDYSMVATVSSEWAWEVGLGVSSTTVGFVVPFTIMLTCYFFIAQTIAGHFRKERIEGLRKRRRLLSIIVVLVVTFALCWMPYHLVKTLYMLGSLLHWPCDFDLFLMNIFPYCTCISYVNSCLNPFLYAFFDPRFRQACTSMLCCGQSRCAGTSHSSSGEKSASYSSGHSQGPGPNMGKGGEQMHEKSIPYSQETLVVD
Test: GTPγS Binding: The human APJ receptor was cloned by polymerase chain reaction and the gene encoding the receptor was subcloned in pFLAG-CMV-3 expression vector (Sigma, Saint Louis, Mo. USA) in-house at Amgen. A GTPγS binding assay was performed on membranes prepared from CHO cells stably expressing human APJ receptor. The optimum experimental conditions for the concentrations of GDP, MgCl2, and NaCl in the assay buffer were initially determined. The assay was performed in assay buffer [20 mM HEPES, pH 7.5, 5 mM MgCl2, and 0.1% (w/v) BSA with 200 mM NaCl, 3 μM GDP] and membranes expressing human APJ receptor/well along with WGA PS beads. The reaction was initiated by addition of 0.2 nM [35S]GTPγS in the absence or presence of various ligands and incubated at RT for 90 min. Nonspecific binding was determined in the presence of 100 μM GTPγS and was always less than 0.2% of total binding.

Row | SMILES | EC50
1 | COc1cc[nH]c(=O)c1-n1c(NS(=O)(=O)[C@@H](C)[C@H](C)c2ncc(C)cn2)nnc1-c1ccc(C)o1 (single isomer, unassigned; form 1) | 0.75 nM
2 | COc1cccc(OC)c1-n1c(NS(=O)(=O)CCc2ncc(F)cn2)nnc1-c1ccco1 | 3.2 nM
3 | COc1cccc(OC)c1-n1c(NS(=O)(=O)[C@@H]2C[C@@H](C(=O)N3CCC3)CN(c3ncc(F)cn3)C2)nnc1-c1ccc(C)o1 (mixture of isomers) | 0.32 nM
4 | COc1cccc(OC)c1-n1c(NS(=O)(=O)[C@H](C)Cc2ncc(F)cc2NC(C)=O)nnc1-c1ccco1 (single isomer, unassigned) | 0.21 nM
5 | COc1cccc(OC)c1-n1c(NS(=O)(=O)[C@@H](C)[C@H](O)c2cc3ccccn3n2)nnc1-c1ccc(C)o1 (single isomer, unassigned) | 3.7 nM
6 | COc1cccc(OC)c1-n1c(NS(=O)(=O)[C@@H](C)[C@@H](O)c2ncn3ccccc23)nnc1-c1ccc(C)o1 (single isomer, unassigned) | 1.4 nM
7 | COc1cccc(OC)c1-n1c(NS(=O)(=O)[C@@H](C)Cc2ncc(F)cc2N2C[C@H](O)CC2=O)nnc1-c1ccco1 (mixture of isomers) | 0.61 nM
8 | COc1cccc(OC)c1-n1c(NS(=O)(=O)[C@@H](C)Cc2ncc(F)c3[nH]cnc23)nnc1-c1ccco1 (single isomer, unassigned) | 28 nM
9 | COc1cccc(OC)c1-n1c(NS(=O)(=O)[C@H](C)[C@](C)(O)c2ncc(F)cn2)nnc1-c1ccc(C)o1 (single isomer, unassigned) | 0.57 nM
10 | COc1cccc(OC)c1-n1c(NS(=O)(=O)[C@@H](C)[C@H](O)c2cscn2)nnc1-c1ccc(C)o1 (mixture of isomers) | 1.2 nM
11 | COc1cccc(OC)c1-n1c(NS(=O)(=O)[C@@H](C)[C@H](OC)c2ccc(C#N)cc2C#N)nnc1-c1ccc(C)o1 (mixture of isomers) | 0.21 nM
12 | COc1cccc(OC)c1-n1c(NS(=O)(=O)[C@H](C)[C@@H](O)c2cnc(C)cn2)nnc1-c1ccc(C)o1 (single isomer, unassigned) | 1.5 nM
13 | COc1cccc(OC)c1-n1c(NS(=O)(=O)[C@H]2COC[C@@H]2c2ncc(F)cn2)nnc1-c1ccco1 (single isomer, unassigned) | 28 nM
14 | COc1cc[nH]c(=O)c1-n1c(NS(=O)(=O)[C@@H](C)[C@H](C)c2ncc(F)cn2)nnc1-c1ccc(C)o1 (single isomer, unassigned; form 2) | 51 nM
15 | COc1cccc(OC)c1-n1c(NS(=O)(=O)[C@@H](C)[C@@H](O)c2cnc3ccccn23)nnc1-c1ccc(C)o1 (single isomer, unassigned) | 0.96 nM
16 | COc1cccc(OC)c1-n1c(NS(=O)(=O)C[C@@](C)(O)c2ncc(C#N)cn2)nnc1-c1ccc(C)o1 (mixture of isomers) | 0.65 nM
17 | COc1cnc([C@@H](O)[C@H](C)S(=O)(=O)Nc2nnc(-c3ccc(C)o3)n2-c2c(OC)cccc2OC)cn1 (mixture of isomers) | 0.25 nM
18 | COc1cccc(OC)c1-n1c(NS(=O)(=O)CCN2C(=O)CCC[C@@H]2C)nnc1-c1ccco1 (single isomer, unassigned) | 1 nM
19 | COc1cccc(OC)c1-n1c(NS(=O)(=O)[C@@H]2C[C@H](c3ccc(F)cc3)CN(C(C)=O)C2)nnc1-c1ccc(C)o1 (single isomer, unassigned) | 1.1 nM
20 | COc1ncnc(OC)c1-n1c(NS(=O)(=O)[C@@H](C)Cc2ncc(F)cn2)nnc1-c1ccc(C)o1 (mixture of isomers) | 3 nM
21 | COc1cccc(OC)c1-n1c(NS(=O)(=O)C[C@H](O)c2ccc(F)cn2)nnc1-c1ccc(C)o1 (single isomer, unassigned) | 0.29 nM
22 | COc1cccc(OC)c1-n1c(NS(=O)(=O)[C@@H](C)[C@H](O)c2cc3n(n2)CCCO3)nnc1-c1ccc(C)o1 (single isomer, unassigned) | 1.2 nM
23 | COc1cccc(OC)c1-n1c(NS(=O)(=O)[C@@H](C)[C@H](C)c2cnc(C)c[n+]2[O-])nnc1-c1ccc(C)o1 (mixture of isomers) | 0.14 nM
24 | COCn1cnc2c(C[C@H](C)S(=O)(=O)Nc3nnc(-c4ccco4)n3-c3c(OC)cccc3OC)ncc(F)c21 (mixture of isomers) | 0.77 nM
25 | COc1cccc(OC)c1-n1c(NS(=O)(=O)[C@@H]2C[C@@H](c3ccc(F)cc3)CN(C(C)=O)C2)nnc1-c1ccc(C)o1 (single isomer, unassigned) | 0.75 nM
26 | COc1cc[nH]c(=O)c1-n1c(NS(=O)(=O)[C@@H](C)[C@H](C)c2ncc(F)cn2)nnc1-c1ccc(C)o1 (single isomer, unassigned; form 1) | 0.67 nM
27 | COc1cccc(OC)c1-n1c(NS(=O)(=O)C[C@H](O)c2ccc(F)cn2)nnc1-c1ccc(C)o1 (mixture of isomers) | 0.17 nM
28 | COc1cccc(OC)c1-n1c(NS(=O)(=O)[C@H](C)[C@@H](O)c2ccnc3c2OCCC3)nnc1-c1ccc(C)o1 (mixture of isomers) | 13 nM

Row | SMILES | EC50
29 | COc1cc[nH]c(=O)c1-n1c(NS(=O)(=O)[C@@H](C)[C@H](C)c2ncc(C)cn2)nnc1-c1ccc(C)o1 (single isomer, unassigned; form 2) | 37 nM
30 | COc1cccc(OC)c1-n1c(NS(=O)(=O)[C@@H](C)[C@@H](OC)c2cn3ccccc3n2)nnc1-c1ccc(C)o1 (mixture of isomers) | 0.96 nM
31 | COc1cccc(OC)c1-n1c(NS(=O)(=O)[C@@H](C)Cc2ncc(Br)cn2)nnc1-c1ccco1 (single isomer, unassigned) | 0.31 nM
32 | COc1cccc(OC)c1-n1c(NS(=O)(=O)C[C@@H](C)c2ncc(C)cn2)nnc1-c1ccco1 (single isomer, unassigned) | 6.7 nM
33 | COc1cccc(OC)c1-n1c(NS(=O)(=O)[C@@H]2CCC[C@H]2c2ncc(F)cn2)nnc1-c1ccc(C)o1 (single isomer, unassigned) | 2.8 nM
34 | COc1cccc(OC)c1-n1c(NS(=O)(=O)[C@@H]2CCCC[C@H]2c2ncc(F)cn2)nnc1-c1ccco1 (single isomer, unassigned) | 30 nM
35 | COc1cccc(OC)c1-n1c(NS(=O)(=O)CCN2C(=O)N(C)CC[C@H]2C)nnc1-c1ccco1 (single isomer, unassigned) | 0.7 nM
36 | COc1cccc(OC)c1-n1c(NS(=O)(=O)[C@@H](C)[C@@H](O)c2coc(C)n2)nnc1-c1ccc(C)o1 (single isomer, unassigned) | 8.3 nM
37 | COc1cccc(OC)c1-n1c(NS(=O)(=O)[C@@H](C)[C@@H](O)c2ncc(F)cn2)nnc1-c1ccc(C)o1 (single isomer, unassigned) | 0.32 nM
38 | COc1cccc(OC)c1-n1c(NS(=O)(=O)[C@@H](C)Cc2ncc(F)c3c2ncn3C)nnc1-c1ccco1 (single isomer, unassigned) | 0.98 nM
39 | CCc1ccc(-c2nnc(NS(=O)(=O)[C@@H](C)Cc3ncc(F)cn3)n2-c2c(OC)cccc2OC)o1 (mixture of isomers) | 0.13 nM
40 | COc1cccc(OC)c1-n1c(NS(=O)(=O)C[C@H](O)c2ccc(Cl)cc2S(C)(=O)=O)nnc1-c1ccc(C)o1 (single isomer, unassigned) | 0.09 nM
41 | COc1cccc(OC)c1-n1c(NS(=O)(=O)[C@H](C)[C@@H](O)c2cc3ccccn3n2)nnc1-c1ccc(C)o1 (mixture of isomers) | 0.65 nM
42 | CCc1cnc([C@@H](C)[C@H](C)S(=O)(=O)Nc2nnc(-c3ccc(C)o3)n2-c2c(OC)cccc2OC)nc1 (single isomer, unassigned) | 3.4 nM
43 | COc1cccc(OC)c1-n1c(NS(=O)(=O)CCc2ccc(F)cn2)nnc1-c1ccco1 | 12 nM
44 | COc1cccc(OC)c1-n1c(NS(=O)(=O)[C@H]2C[C@@H](C(=O)N3CCC3)CN(c3ncc(F)cn3)C2)nnc1-c1ccc(C)o1 (mixture of isomers) | 0.35 nM
45 | Cc1ccc(-c2nnc(NS(=O)(=O)[C@@H](C)Cc3ncc(F)cn3)n2C2CCCC2)o1 (mixture of isomers) | 270 nM
46 | COc1cccc(OC)c1-n1c(NS(=O)(=O)[C@H](C)[C@H](O)c2cscn2)nnc1-c1ccc(C)o1 (mixture of isomers) | 16 nM
47 | COc1cccc(OC)c1-n1c(NS(=O)(=O)[C@H]2CCCN(c3ncc(F)cn3)C2)nnc1-c1ccc(C)o1 (single isomer, unassigned) | 3.2 nM
48 | COc1cccc(OC)c1-n1c(NS(=O)(=O)[C@@H](C)[C@@H](O)c2cccc3ccnn23)nnc1-c1ccc(C)o1 | 0.79 nM and 0.87 nM
49 | COc1cccc(OC)c1-n1c(NS(=O)(=O)[C@@H](C)[C@@H](OCCO)c2ncc(C)cn2)nnc1-c1ccc(C)o1 (single isomer, unassigned) | 0.15 nM
50 | COc1cccc(OC)c1-n1c(NS(=O)(=O)CCc2ncc(Cl)cc2C2=CCN(C(C)=O)CC2)nnc1-c1ccco1 | 0.32 nM
51 | COC[C@@H]1CCCC(=O)N1CCS(=O)(=O)Nc1nnc(-c2ccco2)n1-c1c(OC)cccc1OC (single isomer, unassigned) | 2.1 nM
52 | COc1cccc(OC)c1-n1c(NS(=O)(=O)[C@H]2CCC[C@@H]2c2ncc(F)cn2)nnc1-c1ccc(C)o1 (mixture of isomers) | 2 nM
53 | COC[C@H]1CCCC(=O)N1C[C@@H](C)S(=O)(=O)Nc1nnc(-c2ccc(C)o2)n1-c1c(OC)cccc1OC (single isomer, unassigned) | 0.48 nM
54 | COc1cccc(OC)c1-n1c(NS(=O)(=O)[C@H]2CCCC[C@H]2c2ncc(F)cn2)nnc1-c1ccco1 (single isomer, unassigned) | 4.5 nM
55 | COc1cccc(OC)c1-n1c(NS(=O)(=O)[C@@H](C)[C@@H](O)c2cn3ccccc3n2)nnc1-c1ccc(C)o1 (single isomer, unassigned) | 1 nM
